Laboratory results: ChEMBL document CHEMBL5325437, “Shifting the selectivity of pyrido[2,3-d]pyrimidin-7(8H)-one inhibitors towards the salt-inducible kinase (SIK) subfamily” (Eur J Med Chem, 2023)
Active and inactive are the calls of the source. No cut-off for these calls is given here.

What was measured:
Ephrin type-A receptor 2 = Ephrin type-A receptor 2 (Homo sapiens, UniProt P29317); assay: Binding affinity to recombinant EPHA2 (unknown origin) assessed as stabilization by measuring change in melting temperature at 10 uM by SYPRO orange dye based differential scanning fluorimetry assay
Ephrin type-B receptor 2 = Ephrin type-B receptor 2 (Homo sapiens, UniProt P29323); assay: Inhibition of full length NanoLuc fused EPHB2 (unknown origin) transfected in HEK293T cells using NanoBRET NanoGlo substrate incubated for 2 hrs in presence of tracer by NanoBRET assay; assay type: cell-based
[1] = molecular target: Tyrosine-protein kinase ABL1 (Homo sapiens, UniProt P00519); assay: Inhibition of full length NanoLuc fused ABL1 (unknown origin) transfected in HEK293T cells using NanoBRET NanoGlo substrate incubated for 2 hrs in presence of tracer by NanoBRET assay; assay type: cell-based
Ephrin type-B receptor 3 = Ephrin type-B receptor 3 (Homo sapiens, UniProt P54753); assay: Inhibition of full length NanoLuc fused EPHB3 (unknown origin) transfected in HEK293T cells using NanoBRET NanoGlo substrate incubated for 2 hrs in presence of tracer by NanoBRET assay; assay type: cell-based
[2] = molecular target: Ephrin type-B receptor 3 (Homo sapiens) (UniProt P54753); assay: Binding affinity to recombinant EPHB3 (unknown origin) assessed as stabilization by measuring change in melting temperature at 10 uM by SYPRO orange dye based differential scanning fluorimetry assay
[3] = molecular target: Serine/threonine-protein kinase SIK2 (Homo sapiens) (UniProt Q9H0K1); assay: Inhibition of recombinant human GST-tagged SIK2 assessed as downregulation of SIK2 phosphorylation at Ser358 incubated for 30 mins by Western blotting analysis
[4] = molecular target: T1, Serine/threonine-protein kinase 3 (Homo sapiens) (UniProt Q13188); assay: Binding affinity to recombinant MST2 (unknown origin) assessed as stabilization by measuring change in melting temperature at 10 uM by SYPRO orange dye based differential scanning fluorimetry assay
T1 sequence (whole entry): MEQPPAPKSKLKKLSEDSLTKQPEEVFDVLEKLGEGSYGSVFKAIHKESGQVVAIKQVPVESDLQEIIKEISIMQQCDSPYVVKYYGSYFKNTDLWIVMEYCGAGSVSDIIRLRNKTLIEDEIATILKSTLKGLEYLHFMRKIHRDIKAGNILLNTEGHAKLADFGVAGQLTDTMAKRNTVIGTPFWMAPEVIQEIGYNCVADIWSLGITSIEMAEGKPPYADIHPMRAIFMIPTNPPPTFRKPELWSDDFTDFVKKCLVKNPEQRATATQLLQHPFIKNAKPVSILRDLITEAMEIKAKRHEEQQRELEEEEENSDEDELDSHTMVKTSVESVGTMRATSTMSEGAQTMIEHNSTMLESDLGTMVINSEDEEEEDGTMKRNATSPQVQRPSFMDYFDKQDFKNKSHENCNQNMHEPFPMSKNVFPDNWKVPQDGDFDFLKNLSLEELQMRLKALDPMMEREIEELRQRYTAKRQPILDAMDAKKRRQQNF

[5] = molecular target: Cyclin-G-associated kinase (Homo sapiens) (UniProt O14976); assay: Binding affinity to recombinant GAK (unknown origin) assessed as stabilization by measuring change in melting temperature at 10 uM by SYPRO orange dye based differential scanning fluorimetry assay
SK-OV-3 = assay: Induction of cell cycle arrest in human SK-OV-3 cells assessed as accumulation of cells at G1 phase at 5 uM incubated for 24 hrs by flow cytometry (reference value: 34%); assay type: functional
[6] = molecular target: Serine/threonine-protein kinase SIK2 (Homo sapiens) (UniProt Q9H0K1); assay: Inhibition of recombinant human GST-tagged SIK2 assessed as downregulation of SIK2 phosphorylation at Ser358 a 5 uM incubated for 30 mins by Western blotting analysis

Sequence of Serine/threonine-protein kinase SIK2 (Homo sapiens) (Q9H0K1 whole entry, looked up): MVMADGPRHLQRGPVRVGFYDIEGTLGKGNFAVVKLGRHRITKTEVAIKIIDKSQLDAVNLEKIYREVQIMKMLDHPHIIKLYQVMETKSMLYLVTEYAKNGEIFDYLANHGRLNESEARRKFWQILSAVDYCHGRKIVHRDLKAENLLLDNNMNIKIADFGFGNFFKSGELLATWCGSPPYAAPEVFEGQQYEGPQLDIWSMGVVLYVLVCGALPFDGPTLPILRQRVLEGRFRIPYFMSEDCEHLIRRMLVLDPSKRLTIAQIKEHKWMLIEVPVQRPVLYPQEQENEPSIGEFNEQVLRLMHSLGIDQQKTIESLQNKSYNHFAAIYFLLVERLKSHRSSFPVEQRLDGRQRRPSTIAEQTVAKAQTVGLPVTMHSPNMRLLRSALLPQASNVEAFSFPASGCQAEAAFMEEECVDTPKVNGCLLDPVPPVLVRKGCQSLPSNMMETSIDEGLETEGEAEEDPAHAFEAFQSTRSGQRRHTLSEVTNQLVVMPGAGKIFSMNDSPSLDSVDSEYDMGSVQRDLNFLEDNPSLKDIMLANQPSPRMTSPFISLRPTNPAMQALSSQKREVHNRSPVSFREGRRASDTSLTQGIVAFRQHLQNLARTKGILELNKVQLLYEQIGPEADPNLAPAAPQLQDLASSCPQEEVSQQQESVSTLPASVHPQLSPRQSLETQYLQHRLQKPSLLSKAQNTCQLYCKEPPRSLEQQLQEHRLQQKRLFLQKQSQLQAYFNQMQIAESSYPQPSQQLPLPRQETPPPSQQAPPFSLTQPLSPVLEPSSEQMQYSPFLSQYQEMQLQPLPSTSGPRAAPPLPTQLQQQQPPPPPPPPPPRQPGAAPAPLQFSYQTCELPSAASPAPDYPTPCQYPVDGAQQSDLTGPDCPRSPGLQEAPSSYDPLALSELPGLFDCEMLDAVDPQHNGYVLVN
Sequence of Tyrosine-protein kinase ABL1 (P00519 whole entry, the tested form may be a part): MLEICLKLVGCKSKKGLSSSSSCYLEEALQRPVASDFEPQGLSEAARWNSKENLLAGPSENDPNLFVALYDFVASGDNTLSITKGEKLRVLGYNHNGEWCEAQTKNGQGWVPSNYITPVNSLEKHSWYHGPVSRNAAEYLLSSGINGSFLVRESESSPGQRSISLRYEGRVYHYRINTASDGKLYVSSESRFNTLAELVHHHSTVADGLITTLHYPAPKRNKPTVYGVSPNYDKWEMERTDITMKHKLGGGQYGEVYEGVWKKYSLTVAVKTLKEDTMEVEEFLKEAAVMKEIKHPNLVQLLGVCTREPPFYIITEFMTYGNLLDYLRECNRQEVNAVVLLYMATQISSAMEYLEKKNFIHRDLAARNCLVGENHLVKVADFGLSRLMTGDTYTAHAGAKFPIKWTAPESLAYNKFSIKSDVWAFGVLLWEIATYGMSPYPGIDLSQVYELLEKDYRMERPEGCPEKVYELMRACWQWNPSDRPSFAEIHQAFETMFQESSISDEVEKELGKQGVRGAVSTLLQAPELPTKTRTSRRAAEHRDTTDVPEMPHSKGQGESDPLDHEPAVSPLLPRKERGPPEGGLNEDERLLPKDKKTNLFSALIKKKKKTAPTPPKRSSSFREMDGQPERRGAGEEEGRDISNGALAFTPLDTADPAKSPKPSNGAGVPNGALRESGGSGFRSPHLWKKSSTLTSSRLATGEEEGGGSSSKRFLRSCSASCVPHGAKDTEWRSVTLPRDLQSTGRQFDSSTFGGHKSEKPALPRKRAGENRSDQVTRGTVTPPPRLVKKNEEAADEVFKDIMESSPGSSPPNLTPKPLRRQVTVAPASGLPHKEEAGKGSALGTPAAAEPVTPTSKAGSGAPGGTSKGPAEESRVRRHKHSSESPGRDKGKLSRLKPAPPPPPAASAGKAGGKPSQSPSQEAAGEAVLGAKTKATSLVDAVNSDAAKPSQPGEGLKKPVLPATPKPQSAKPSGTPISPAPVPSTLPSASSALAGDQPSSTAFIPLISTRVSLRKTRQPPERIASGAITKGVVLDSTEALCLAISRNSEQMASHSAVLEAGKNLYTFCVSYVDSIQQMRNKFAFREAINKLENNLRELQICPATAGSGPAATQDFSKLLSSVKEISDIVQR
Sequence of Ephrin type-B receptor 3 (Homo sapiens) (P54753 whole entry): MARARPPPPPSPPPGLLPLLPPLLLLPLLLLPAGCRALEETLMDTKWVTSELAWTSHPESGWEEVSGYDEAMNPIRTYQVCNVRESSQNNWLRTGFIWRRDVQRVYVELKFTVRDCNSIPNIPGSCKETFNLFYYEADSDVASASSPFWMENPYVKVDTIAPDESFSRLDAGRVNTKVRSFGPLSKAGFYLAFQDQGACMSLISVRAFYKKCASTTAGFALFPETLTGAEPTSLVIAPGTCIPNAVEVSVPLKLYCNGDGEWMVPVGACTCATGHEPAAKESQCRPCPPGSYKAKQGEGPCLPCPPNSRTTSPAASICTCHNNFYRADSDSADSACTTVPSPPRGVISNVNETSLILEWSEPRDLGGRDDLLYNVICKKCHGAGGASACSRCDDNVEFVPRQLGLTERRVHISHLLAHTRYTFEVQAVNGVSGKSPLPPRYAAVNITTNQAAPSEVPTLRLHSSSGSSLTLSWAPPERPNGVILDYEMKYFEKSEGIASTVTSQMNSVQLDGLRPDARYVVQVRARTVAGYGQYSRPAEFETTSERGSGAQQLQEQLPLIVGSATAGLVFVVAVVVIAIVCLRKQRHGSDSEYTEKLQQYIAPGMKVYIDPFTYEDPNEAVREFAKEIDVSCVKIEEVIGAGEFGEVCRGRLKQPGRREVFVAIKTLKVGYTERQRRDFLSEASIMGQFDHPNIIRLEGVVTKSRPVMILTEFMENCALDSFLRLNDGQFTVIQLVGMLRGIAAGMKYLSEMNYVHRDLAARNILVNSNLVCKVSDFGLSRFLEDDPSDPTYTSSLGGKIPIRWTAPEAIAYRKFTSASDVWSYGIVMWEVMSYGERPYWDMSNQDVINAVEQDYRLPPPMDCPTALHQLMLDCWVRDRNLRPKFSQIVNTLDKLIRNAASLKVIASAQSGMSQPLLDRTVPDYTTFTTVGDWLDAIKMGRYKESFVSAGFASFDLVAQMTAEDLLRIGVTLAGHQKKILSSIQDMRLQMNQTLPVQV
Sequence of Ephrin type-B receptor 3 (P54753 whole entry, the tested form may be a part): as the sequence (P54753 whole entry) above
Sequence of Cyclin-G-associated kinase (Homo sapiens) (O14976 whole entry): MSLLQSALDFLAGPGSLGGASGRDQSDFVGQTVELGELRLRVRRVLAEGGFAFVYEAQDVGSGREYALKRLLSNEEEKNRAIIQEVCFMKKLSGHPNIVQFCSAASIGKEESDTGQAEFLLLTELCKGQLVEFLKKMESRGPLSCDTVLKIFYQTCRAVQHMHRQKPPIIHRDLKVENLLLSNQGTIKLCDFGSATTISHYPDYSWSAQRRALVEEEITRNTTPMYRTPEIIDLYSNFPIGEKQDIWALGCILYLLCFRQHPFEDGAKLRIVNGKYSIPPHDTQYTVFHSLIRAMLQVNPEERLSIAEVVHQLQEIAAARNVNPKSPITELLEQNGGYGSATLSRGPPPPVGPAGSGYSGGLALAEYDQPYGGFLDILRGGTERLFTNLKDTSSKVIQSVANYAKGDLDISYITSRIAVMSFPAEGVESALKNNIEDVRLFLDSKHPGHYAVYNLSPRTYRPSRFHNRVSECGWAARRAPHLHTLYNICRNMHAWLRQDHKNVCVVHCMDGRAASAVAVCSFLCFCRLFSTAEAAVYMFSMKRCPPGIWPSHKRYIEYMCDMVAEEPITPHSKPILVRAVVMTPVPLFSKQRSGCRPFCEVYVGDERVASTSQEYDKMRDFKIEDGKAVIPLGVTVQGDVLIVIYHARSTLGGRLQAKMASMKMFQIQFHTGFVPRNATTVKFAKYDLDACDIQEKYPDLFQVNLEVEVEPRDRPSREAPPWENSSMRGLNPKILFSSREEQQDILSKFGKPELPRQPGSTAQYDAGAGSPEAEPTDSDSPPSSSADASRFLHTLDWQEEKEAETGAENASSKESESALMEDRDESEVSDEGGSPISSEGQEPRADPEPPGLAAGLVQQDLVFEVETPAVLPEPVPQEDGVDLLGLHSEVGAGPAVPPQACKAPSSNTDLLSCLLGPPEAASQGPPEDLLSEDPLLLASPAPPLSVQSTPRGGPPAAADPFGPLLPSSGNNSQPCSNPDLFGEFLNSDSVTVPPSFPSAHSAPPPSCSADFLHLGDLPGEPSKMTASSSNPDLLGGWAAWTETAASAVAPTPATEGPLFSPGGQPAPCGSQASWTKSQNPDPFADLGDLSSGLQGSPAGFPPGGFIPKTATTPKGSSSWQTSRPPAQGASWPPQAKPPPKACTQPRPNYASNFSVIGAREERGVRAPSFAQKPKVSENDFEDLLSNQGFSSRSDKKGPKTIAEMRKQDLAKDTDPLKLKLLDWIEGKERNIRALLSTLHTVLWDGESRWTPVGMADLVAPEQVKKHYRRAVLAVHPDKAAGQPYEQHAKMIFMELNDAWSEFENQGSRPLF

CNc1ncc2cc(-c3cc(F)ccc3F)c(=O)n(CCCCN)c2n1
ΔTm (Ephrin type-A receptor 2): 8.9 °C | IC50 (Ephrin type-B receptor 2): 22.6 µM | IC50 [1]: 28.1 µM | IC50 (Ephrin type-B receptor 3): 18.3 µM | ΔTm [2]: 5.6 °C | inhibition [3]: Dose-Dependent Effect | ΔTm [4]: 0.6 °C | ΔTm [5]: 5.9 °C | Activity (SK-OV-3): 50% | inhibition [6]: Active
